The values that follow come from paper PMC4330097, “Competitive Binding of a Benzimidazole to the Histone-Binding Pocket of the Pygo PHD Finger” (ACS Chemical Biology, 2014).

No end group written: not given here. Me2 = dimethyl on the lysine side chain (dimethyllysine)

Experiment [1] concerns the target T1, Pygo2 PHD finger (PHD–HD1 complex) (Homo sapiens, UniProt Q9BRQ0).
T1 sequence (Q9BRQ0 327-387): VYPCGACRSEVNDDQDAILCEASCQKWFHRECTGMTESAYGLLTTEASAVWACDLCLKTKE
T1 sequence (Q86UU0 235-263 partner): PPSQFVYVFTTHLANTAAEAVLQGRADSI
In words: biochemical. On the set-up: PHD–HD1 complex; with B9L HD1 (BCL9L); 15N-HSQC NMR titration of 15N-labelled PHD-HD1; Kd from chemical shift perturbations. The text has this: […]. […] Nevertheless, we asked whether CF16 could compete with a native histone H3 tail peptide for binding to the PHD–HD1 complex.

In experiment [2] the target is T1, Pygo2 PHD finger (PHD–HD1 complex). Description: HSQC NMR chemical shift perturbation. The class given is binding. On the set-up: PHD–HD1 complex; with B9L HD1 (BCL9L).
Experiment [3] shares this target. Description: HSQC NMR titration, intermolecular NOEs, NMR competition with H3 peptide. Type of experiment: binding. More on the design: with B9L HD1 (BCL9L). The text has this:
HSQC NMR titration, intermolecular NOEs, NMR competition with H3 peptide on Pygo2 PHD finger (PHD–HD1 complex) | estimated affinities of CF16 and CF18 for the K4me pocket appear to be lower

The target is the same in experiment [4]. Description: HSQC NMR titration, intermolecular NOEs. Type of experiment: binding. On the set-up: with B9L HD1 (BCL9L).
Experiment [5] concerns the target T2, histone H3 tail pentapeptide ARTKme2Q (Homo sapiens).
T2 chain: ARTK(Me2)Q
Description: NMR HSQC titration.

As usually defined, the Kd is the free concentration of one partner at which half of the binding sites on the other are occupied at equilibrium, for simple one-to-one binding. In the case of `Nc1nc2cc3c(cc2s1)OCCO3` [CF7], the Kd in experiment [1] worked out at 2.9 mM.

For `CCn1c(NCCN2CCOCC2)nc2ccccc21` [CF17], in experiment [2], the “HSQC NMR chemical shift perturbation” value was “CF14, CF16, and CF17 produced altogether distinct CSP patterns”.

For the molecule `CCn1c(N)nc2ccccc21` [CF16], the Kd in experiment [3] is approximately 7.3 mM.

For the molecule `CN(C)CCn1c(N)nc2ccccc21` [CF18], the Kd in experiment [4] was approximately 14.7 mM.

B1: Pygo2 PHD–B9L HD1 complex 327-387+235-263 (protein)
chain 1: AASAPPPPDKLEGGGGPAPPPAPPSTGRKQGKAGLQMKSPEKKRRKSNTQGPAYSHLTEFAPPPTPMVDHLVASNPFEDDFGAPKVGVAAPPFLGSPVPFGGFRVQGGMAGQVPPGYSTGGGGGPQPLRRQPPPFPPNPMGPAFNMPPQGPGYPPPGNMNFPSQPFNQPLGQNFSPPSGQMMPGPVGGFGPMISPTMGQPPRAELGPPSLSQRFAQPGAPFGPSPLQRPGQGLPSLPPNTSPFPGPDPGFPGPGGEDGGKPLNPPASTAFPQEPHSGSPAAAVNGNQPSFPPNSSGRGGGTPDANSLAPPGKAGGGSGPQPPPGLVYPCGACRSEVNDDQDAILCEASCQKWFHRECTGMTESAYGLLTTEASAVWACDLCLKTKEIQSVYIREGMGQLVAANDG
chain 2: MRILANKTRLPHPRRREAPGSPPLSPRGHCPPAPAKPMHPENKLTNHGKTGNGGAQSQHQNVNQGPTCNVGSKGVGAGNHGAKANQISPSNSSLKNPQAGVPPFSSLKGKVKRDRSVSVDSGEQREAGTPSLDSEAKEVAPRSKRRCVLERKQPYSGDEWCSGPDSEEDDKPIGATHNCNVADPAMAAPQLGPGQTTQLPLSESSVPGAPHGPPPGLRPDAPGGGGGGGGVPGKPPSQFVYVFTTHLANTAAEAVLQGRADSILAYHQQNVPRAKLDQAPKVPPTPEPLPLSTPSAGTPQSQPPPLPPPPPPAPGSAPPALPPEGPPEDSSQDLAPNSVGAASTGGGTGGTHPNTPTATTANNPLPPGGDPSSAPGPALLGEAAAPGNGQRSLVGSEGLSKEQLEHRERSLQTLRDIERLLLRSGETEPFLKGPPGGAGEGGPPAQAPPPPQQPPTAPPSGLKKYEEPLQSMISQTQSLGGPPLEHEVPGHPPGGDMGQQMNMMIQRLGQDSLTPEQVAWRKLQEEYYEEKRRKEEQIGLHGSRPLQDMMGMGGMMVRGPPPPYHSKPGDQWPPGMGAQLRGPMDVQDPMQLRGGPPFPGPRFPGNQIQRVPGFGGMQSMPMEVPMNAMQRPVRPGMGWTEDLPPMGGPSNFAQNTMPYPGGQGEAERFMTPRVREELLRHQLLEKRSMGMQRPLGMAGSGMGQSMEMERMMQAHRQMDPAMFPGQMAGGEGLAGTPMGMEFGGGRGLLSPPMGQSGLREVDPPMGPGNLNMNMNVNMNMNMNLNVQMTPQQQMLMSQKMRGPGDLMGPQGLSPEEMARVRAQNSSGVMGGPQKMLMPSQFPNQGQQGFSGGQGPYQAMSQDMGNTQDMFSPDQSSMPMSNVGTTRLSHMPLPPASNPPGTVHSAPNRGLGRRPSDLTISINQMGSPGMGHLKSPTLSQVHSPLVTSPSANLKSPQTPSQMVPLPSANPPGPLKSPQVLGSSLSVRSPTGSPSRLKSPSMAVPSPGWVASPKTAMPSPGVSQNKQPPLNMNSSTTLSNMEQGTLPPSGPRSSSSAPPANPPSGLMNPSLPFTSSPDPTPSQNPLSLMMTQMSKYAMPSSTPLYHNAIKTIATSDDELLPDRPLLPPPPPPQGSGPGISNSQPSQMHLNSAAAQSPMGMNLPGQQPLSHEPPPAMLPSPTPLGSNIPLHPNAQGTGGPPQNSMMMAPGGPDSLNAPCGPVPSSSQMMPFPPRLQQPHGAMAPTGGGGGGPGLQQHYPSGMALPPEDLPNQPPGPMPPQQHLMGKAMAGRMGDAYPPGVLPGVASVLNDPELSEVIRPTPTGIPEFDLSRIIPSEKPSSTLQYFPKSENQPPKAQPPNLHLMNLQNMMAEQTPSRPPNLPGQQGVQRGLNMSMCHPGQMSLLGRTGVPPQQGMVPHGLHQGVMSPPQGLMTQQNFMLMKQRGVGGEVYSQPPHMLSPQGSLMGPPPQQNLMVSHPLRQRSVSLDSQMGYLPAPGGMANLPF
In turn, B1 had a Kd in experiment [5] of 0.528 mM.
